From patent publication US10035777B2, “Heterocyclic kinase inhibitors” (priority 2014, dated 2018) come the findings set out here.

Like-named read-outs stand apart in the source and are kept apart here.

This assay addresses GST-Xa-hAAK1 (Homo sapiens (Human), UniProt Q2M2I8). Put plainly: biochemical. As to the method: The assays were performed in U-bottom 384-well plates. […] The reactions were initiated by the combination of bacterially expressed, GST-Xa-hAAK1 with substrates and test compounds. The reactions were incubated at room temperature for 3 hours and terminated by adding 60 μl of 35 mM EDTA buffer to each sample. The reactions were analyzed on the Caliper LabChip 3000 (Caliper, Hopkinton, Mass.) by electrophoretic separation of the fluorescent substrate and phosphorylated product. […] Compounds were dissolved at 10 mM in dimethylsulfoxide (DMSO) and evaluated at eleven concentrations. IC50 values were derived by non-linear regression analysis.

Where [1] appears, read: ATP 22 μM, GST-Xa-hAAK1 3.5 nM, room temperature for 3 hours, Caliper LabChip 3000, read-out: AAK1 IC50.

GST-Xa-hAAK1, sequence (Q2M2I8 whole entry): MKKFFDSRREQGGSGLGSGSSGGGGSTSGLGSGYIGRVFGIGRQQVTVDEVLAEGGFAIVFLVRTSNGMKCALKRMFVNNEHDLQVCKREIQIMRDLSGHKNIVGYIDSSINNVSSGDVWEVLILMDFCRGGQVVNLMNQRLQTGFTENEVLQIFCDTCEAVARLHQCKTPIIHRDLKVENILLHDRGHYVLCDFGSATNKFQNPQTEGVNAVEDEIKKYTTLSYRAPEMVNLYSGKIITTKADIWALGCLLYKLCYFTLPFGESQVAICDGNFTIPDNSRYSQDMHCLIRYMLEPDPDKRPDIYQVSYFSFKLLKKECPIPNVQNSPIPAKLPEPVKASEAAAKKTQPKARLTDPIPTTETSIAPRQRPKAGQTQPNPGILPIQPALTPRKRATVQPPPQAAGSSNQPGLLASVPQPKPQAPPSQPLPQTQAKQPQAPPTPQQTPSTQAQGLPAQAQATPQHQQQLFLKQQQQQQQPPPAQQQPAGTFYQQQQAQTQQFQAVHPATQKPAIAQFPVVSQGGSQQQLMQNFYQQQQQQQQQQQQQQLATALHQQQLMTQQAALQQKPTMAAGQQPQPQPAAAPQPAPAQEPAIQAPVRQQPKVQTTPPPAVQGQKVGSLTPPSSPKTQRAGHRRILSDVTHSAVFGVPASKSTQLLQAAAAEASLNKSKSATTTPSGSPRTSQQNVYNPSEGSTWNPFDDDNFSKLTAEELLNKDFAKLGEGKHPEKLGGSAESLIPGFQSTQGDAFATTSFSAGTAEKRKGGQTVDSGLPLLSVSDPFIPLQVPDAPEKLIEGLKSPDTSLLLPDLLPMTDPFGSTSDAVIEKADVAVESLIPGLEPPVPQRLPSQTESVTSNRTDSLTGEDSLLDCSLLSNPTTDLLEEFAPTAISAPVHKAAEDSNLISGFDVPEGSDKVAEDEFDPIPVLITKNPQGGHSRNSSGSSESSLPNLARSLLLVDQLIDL

Consider `CC(C)C[C@@H](N)c1nc2cc(-c3cc[nH]n3)ccc2[nH]1` [Example 3, (R)-1-(5-(1H-pyrazol-3-yl)-1H-benzo[d]imidazol-2-yl)-3-methylbutan-1-amine], for which the IC50 was found to be 56 nM.

In the case of `COc1cc2[nH]c([C@H](N)C3CCCCC3)nc2cc1-c1cnco1` [Example 64, (R)-cyclohexyl(6-methoxy-5-(oxazol-5-yl)-1H-benzo[d]imidazol-2-yl)methanamine], the 50% inhibitory concentration (IC50) under setting [1] amounted to 16 nM.

As for `COc1cc(-c2cnco2)cc2nc([C@H](N)CC(C)C)[nH]c12` [Example 21, (R)-1-(7-methoxy-5-(oxazol-5-yl)-1H-benzo[d]imidazol-2-yl)-3-methylbutan-1-amine], under setting [1], the IC50 was 33 nM.

For the compound `COc1cnccc1-c1ccc2oc(C(N)CC(C)C)nc2c1` (stereo not shown) [Example 94, 1-(5-(3-methoxypyridin-4-yl)benzo[d]oxazol-2-yl)-3-methylbutan-1-amine], the IC50 under setting [1] is 294 nM.

Regarding `CC(C)CC(CN)c1nc2cc(-c3cnco3)ccc2[nH]1` (stereo not shown) [Example 65, 4-methyl-2-(5-(oxazol-5-yl)-1H-benzo[d]imidazol-2-yl)pentan-1-amine], under setting [1], the IC50 is 26 nM.

For the compound `Cc1noc(C)c1-c1ccc2[nH]c([C@H](N)CC(C)C)nc2c1` [Example 78, (R)-1-(5-(3,5-dimethylisoxazol-4-yl)-1H-benzo[d]imidazol-2-yl)-3-methylbutan-1-amine], the IC50 amounted to 510 nM.

`Cc1n[nH]c(C)c1-c1ccc2[nH]c([C@H](N)CC(C)C)nc2c1` [Example 19, (R)-1-(5-(3,5-dimethyl-1H-pyrazol-4-yl)-1H-benzo[d]imidazol-2-yl)-3-methylbutan-1-amine]: under setting [1], the IC50 amounted to 41 nM.

As to `NC(CC(C(F)(F)F)C(F)(F)F)c1nc2ccc(-c3cnco3)cc2[nH]1` (stereo not shown) [Example 104, 4,4,4-trifluoro-1-(6-(oxazol-5-yl)-1H-benzo[d]imidazol-2-yl)-3-(trifluoromethyl)butan-1-amine], the IC50 under setting [1] came to 381 nM.

With `COc1cc(-c2ccc3[nH]c([C@H](N)CC(C)C)nc3c2)c(F)cn1` [Example 20, (R)-1-(5-(5-fluoro-2-methoxypyridin-4-yl)-1H-benzo[d]imidazol-2-yl)-3-methylbutan-1-amine], the IC50 under setting [1] was found to be 489 nM.

With `CC(C)C[C@@H](N)c1nc2cc(-c3ccnc(N)n3)ccc2[nH]1` [Example 16, (R)-4-(2-(1-amino-3-methylbutyl)-1H-benzo[d]imidazol-5-yl)pyrimidin-2-amine], the IC50 under setting [1] was found to be 202 nM.

As to `CC(C)C[C@@H](N)c1nc2cc(-c3cnco3)ccc2[nH]1` [Example 4, (R)-3-methyl-1-(5-(oxazol-5-yl)-1H-benzo[d]imidazol-2-yl)butan-1-amine], the IC50 worked out at 52 nM.

Regarding `COc1cnccc1-c1ccc2[nH]c(CCC(C)C)nc2c1` [Example 56, 2-isopentyl-5-(3-methoxypyridin-4-yl)-1H-benzo[d]imidazole], the IC50 under setting [1] is 620 nM.

On to `COc1cnccc1-c1ccc2nc([C@H](N)CC(C)C)n(CC(F)(F)F)c2c1` [Example 35, (R)-1-(6-(3-methoxypyridin-4-yl)-1-(2,2,2-trifluoroethyl)-1H-benzo[d]imidazol-2-yl)-3-methylbutan-1-amine], for which the IC50 under setting [1] came out at 25 nM.

In the case of `CC(C)C[C@@H](N)c1nc2cc(-c3ccncc3)ccc2s1` [Example 96, (R)-3-methyl-1-(5-(pyridin-4-yl)benzo[d]thiazol-2-yl)butan-1-amine], the 50% inhibitory concentration (IC50) under setting [1] came out at 797 nM.

For `CC(C(N)c1nc2ccc(-c3ccncc3)cc2[nH]1)C(F)(F)F` (single isomer, unassigned) [Example 52, 3,3,3-trifluoro-2-methyl-1-(6-(pyridin-4-yl)-1H-benzo[d]imidazol-2-yl)propan-1-amine], the IC50 amounted to 232 nM.

Regarding `c1cc(-c2ccc3[nH]c(CC4CCCC4)nc3c2)ccn1` [Example 99, 2-(cyclopentylmethyl)-5-(pyridin-4-yl)-1H-benzo[d]imidazole], the concentration for half-maximal inhibition (IC50) under setting [1] is 105 nM.

Consider `CCCn1c([C@H](N)CC(C)C)nc2ccc(-c3ccncc3)cc21` [Example 43, (R)-3-methyl-1-(1-propyl-6-(pyridin-4-yl)-1H-benzo[d]imidazol-2-yl)butan-1-amine], for which the IC50 under setting [1] is 103 nM.

With `CC(C)C[C@@H](NCC(F)(F)F)c1nc2cc(-c3ccncc3)ccc2[nH]1` [Example 66, 3-methyl-1-(5-(pyridin-4-yl)-1H-benzo[d]imidazol-2-yl)-N-(2,2,2-trifluoroethyl)butan-1-amine], the IC50 (read-out: AAK1 IC50) was found to be 45 nM.

For `CC1(C)CC1c1nc2ccc(-c3ccncc3)cc2[nH]1` (stereo not shown) [Example 49, 2-(2,2-dimethylcyclopropyl)-6-(pyridin-4-yl)-1H-benzo[d]imidazole], the IC50 is 338 nM.

On to `CC(C)C[C@@H](N)c1nc2cc(-c3ncnc4[nH]ccc34)ccc2[nH]1` [Example 8, (R)-1-(5-(7H-pyrrolo[2,3-d]pyrimidin-4-yl)-1H-benzo[d]imidazol-2-yl)-3-methylbutan-1-amine], for which the IC50 under setting [1] is 4 nM.

Take `COc1cc2nc([C@H](N)CC(C)C)[nH]c2cc1-c1cnco1` [Example 29, (R)-1-(5-methoxy-6-(oxazol-5-yl)-1H-benzo[d]imidazol-2-yl)-3-methylbutan-1-amine]: the concentration for half-maximal inhibition (IC50) came to 12 nM.

As to `CC(C)CC(N)c1nc2ccc(-c3ccncc3)cc2s1` (stereo not shown) [Example 98, 3-methyl-1-(6-(pyridin-4-yl)benzo[d]thiazol-2-yl)butan-1-amine], the IC50 is 44 nM.

As for `COc1cnccc1-c1cc2nc([C@H](N)CC(C)C)[nH]c2cc1OC` [Example 27, (R)-1-(6-methoxy-5-(3-methoxypyridin-4-yl)-1H-benzo[d]imidazol-2-yl)-3-methylbutan-1-amine], where the note is “read-out: AAK1 IC50”, the IC50 turned out to be 2000 nM.

Take `COCCN[C@H](CC(C)C)c1nc2cc(-c3cnco3)ccc2[nH]1` [Example 102, (R)-N-(2-methoxyethyl)-3-methyl-1-(5-(oxazol-5-yl)-1H-benzo[d]imidazol-2-yl)butan-1-amine]: the IC50 under setting [1] was determined as 680 nM.

On to `CNC(CC(C)C)c1nc2cc(-c3cnco3)c(OC)cc2[nH]1` (stereo not shown) [Example 107, 1-(6-methoxy-5-(oxazol-5-yl)-1H-benzo[d]imidazol-2-yl)-N,3-dimethylbutan-1-amine], for which the concentration for half-maximal inhibition (IC50) under setting [1] came to 16 nM.

As to `CC(C)OCc1nc2ccc(-c3ccncc3)cc2[nH]1` [Example 54, 2-(isopropoxymethyl)-6-(pyridin-4-yl)-1H-benzo[d]imidazole], the IC50 amounted to 785 nM.

For the compound `CC(C)C[C@@H](N)c1nc2ccc(-c3ccncc3)cc2n1C(C)C` [Example 44, (R)-1-(1-isopropyl-6-(pyridin-4-yl)-1H-benzo[d]imidazol-2-yl)-3-methylbutan-1-amine], the concentration for half-maximal inhibition (IC50) under setting [1] turned out to be 124 nM.

Consider `CC(C)C[C@@H](N)c1nc2ccc(-c3ccncc3)cc2n1C` [Example 42, (R)-3-methyl-1-(1-methyl-6-(pyridin-4-yl)-1H-benzo[d]imidazol-2-yl)butan-1-amine], for which, under setting [1], the IC50 was 159 nM.

For the compound `CC(C)C[C@@H](N)c1nc2cc(-c3ccnc4ccccc34)ccc2[nH]1` [Example 9, (R)-3-methyl-1-(5-(quinolin-4-yl)-1H-benzo[d]imidazol-2-yl)butan-1-amine], under setting [1], the IC50 worked out at 13 nM.

As to `CC1CC1c1nc2ccc(-c3ccncc3)cc2[nH]1` (stereo not shown) [Example 48, 2-(2-methylcyclopropyl)-6-(pyridin-4-yl)-1H-benzo[d]imidazole], the IC50 under setting [1] was found to be 897 nM.

For `CC(C)C[C@@H](N)c1nc2cc(-c3ccnc(F)c3)ccc2[nH]1` [Example 12, (R)-1-(5-(2-fluoropyridin-4-yl)-1H-benzo[d]imidazol-2-yl)-3-methylbutan-1-amine], the IC50 under setting [1] is 148 nM.

Take `CCn1c([C@H](N)CC(C)C)nc2cc(-c3cnco3)ccc21` [Example 46, (R)-1-(1-ethyl-5-(oxazol-5-yl)-1H-benzo[d]imidazol-2-yl)-3-methylbutan-1-amine]: the IC50 under setting [1] was 1540 nM.

As to `COc1cc(-c2cc3nc([C@H](N)CC(C)C)[nH]c3cc2OC)ccn1` [Example 28, (R)-1-(6-methoxy-5-(2-methoxypyridin-4-yl)-1H-benzo[d]imidazol-2-yl)-3-methylbutan-1-amine], the IC50 (read-out: AAK1 IC50) was determined as 2000 nM.

As for `CC(C)C[C@@H](N)c1nc2ccc(-c3cnco3)cc2n1CC(F)(F)F` [Example 36, (R)-3-methyl-1-(6-(oxazol-5-yl)-1-(2,2,2-trifluoroethyl)-1H-benzo[d]imidazol-2-yl)butan-1-amine], under setting [1], the IC50 amounted to 172 nM.

Consider “(R)-1-(5-(1H-pyrazolo[3, 4-b]pyridin-4-yl)-1H-benzo[d]imidazol-2-yl)-3-methylbutan-1-amine [Example 7]”, for which, under setting [1], the IC50 came out at 10 nM.

Turning to `COc1cc(-c2ccncc2)cc2nc([C@H](N)CC(C)C)[nH]c12` [Example 22, (R)-1-(7-methoxy-5-(pyridin-4-yl)-1H-benzo[d]imidazol-2-yl)-3-methylbutan-1-amine], the IC50 is 52 nM.

Turning to `CC(c1nc2cc(-c3ccncc3)ccc2[nH]1)N1CCOCC1` (stereo not shown) [Example 79, 4-(1-(5-(pyridin-4-yl)-1H-benzo[d]imidazol-2-yl)ethyl)morpholine], the IC50 was found to be 591 nM.

As for `CC(C)CC(N)c1nc2cc(-c3ccncc3)ccc2s1` (stereo not shown) [Example 95, 3-methyl-1-(5-(pyridin-4-yl)benzo[d]thiazol-2-yl)butan-1-amine], the IC50 under setting [1] came to 100 nM.

On to `CC(C)C[C@@H](N)c1nc2cc(-c3ccncc3F)ccc2[nH]1` [Example 10, (R)-1-(5-(3-fluoropyridin-4-yl)-1H-benzo[d]imidazol-2-yl)-3-methylbutan-1-amine], for which the half-inhibitory concentration (IC50) under setting [1] amounted to 44 nM.

`CC(C)CC(C)(N)c1nc2ccc(-c3cnco3)cc2[nH]1` (stereo not shown) [Example 103, 4-methyl-2-(6-(oxazol-5-yl)-1H-benzo[d]imidazol-2-yl)pentan-2-amine]: the IC50 under setting [1] worked out at 158 nM.

Usually IC50 stands for the concentration that inhibits the measured activity by half.
